The record followed here is patent publication US20240208953A1, “"Cyclopenta[c]pyrrol Negative Allosteric Modulators of NR2B"” (Novartis AG, priority 2021, published 2024).

pIC50: −log10 of the molar value.

The term pIC50 denotes the IC50 on a negative log10 scale, so that one unit is a factor of ten.

One series has as its target NR2B (Rattus norvegicus (Rat), UniProt Q00960). Description: NR2B rat cortical neuron calcium influx assay. Type of series: cell-based. The note with it: rat cortical neurons, glutamate and glycine stimulated calcium influx. The method, boiled down: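 Primary cortical neurons from E18 Sprague Dawley rat embryos, cultured 2 days, were loaded with Calcium 6 dye in 1.8 mM Ca-HBSS and preincubated with compound 2 h at 37° C. Glutamate plus glycine was added and fluorescence read for 2 min as peak/baseline ratio; duplicate dose-response curves gave IC50 (μM) and maximal inhibition.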

A further series addresses P-glycoprotein (P-gp) (Homo sapiens (Human), UniProt P08183). Description: MDCK-MDR1 permeability / efflux assay. Type of series: in vitro ADME. To be noted: for efflux ratio at 120 min, 10 μM: dog, MDCK-MDR1, pH 7.4, efflux ratio, read-out: MDCK-MDR1 ER. The method, boiled down:
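MDCK-MDR1 monolayers grown 4 days on Transwells; 10 μM compound in HBSS/10 mM HEPES pH 7.4 with 0.02% BSA, run A→B and B→A for 120 min at 37 °C without shaking. Donor and receiver concentrations by LC-MS/MS; Papp and recovery calculated, efflux ratio from B→A vs A→B.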

The target of a further series is hERG (Homo sapiens (Human), UniProt Q12809). Nature of the series: hERG Qpatch assay. The format is cell-based. The note with it: Table 2, hERG expressing CHO-K1 cells. The procedure: Example 3. hERG Qpatch Assay Protocol
Sequence of hERG (Q12809 whole entry): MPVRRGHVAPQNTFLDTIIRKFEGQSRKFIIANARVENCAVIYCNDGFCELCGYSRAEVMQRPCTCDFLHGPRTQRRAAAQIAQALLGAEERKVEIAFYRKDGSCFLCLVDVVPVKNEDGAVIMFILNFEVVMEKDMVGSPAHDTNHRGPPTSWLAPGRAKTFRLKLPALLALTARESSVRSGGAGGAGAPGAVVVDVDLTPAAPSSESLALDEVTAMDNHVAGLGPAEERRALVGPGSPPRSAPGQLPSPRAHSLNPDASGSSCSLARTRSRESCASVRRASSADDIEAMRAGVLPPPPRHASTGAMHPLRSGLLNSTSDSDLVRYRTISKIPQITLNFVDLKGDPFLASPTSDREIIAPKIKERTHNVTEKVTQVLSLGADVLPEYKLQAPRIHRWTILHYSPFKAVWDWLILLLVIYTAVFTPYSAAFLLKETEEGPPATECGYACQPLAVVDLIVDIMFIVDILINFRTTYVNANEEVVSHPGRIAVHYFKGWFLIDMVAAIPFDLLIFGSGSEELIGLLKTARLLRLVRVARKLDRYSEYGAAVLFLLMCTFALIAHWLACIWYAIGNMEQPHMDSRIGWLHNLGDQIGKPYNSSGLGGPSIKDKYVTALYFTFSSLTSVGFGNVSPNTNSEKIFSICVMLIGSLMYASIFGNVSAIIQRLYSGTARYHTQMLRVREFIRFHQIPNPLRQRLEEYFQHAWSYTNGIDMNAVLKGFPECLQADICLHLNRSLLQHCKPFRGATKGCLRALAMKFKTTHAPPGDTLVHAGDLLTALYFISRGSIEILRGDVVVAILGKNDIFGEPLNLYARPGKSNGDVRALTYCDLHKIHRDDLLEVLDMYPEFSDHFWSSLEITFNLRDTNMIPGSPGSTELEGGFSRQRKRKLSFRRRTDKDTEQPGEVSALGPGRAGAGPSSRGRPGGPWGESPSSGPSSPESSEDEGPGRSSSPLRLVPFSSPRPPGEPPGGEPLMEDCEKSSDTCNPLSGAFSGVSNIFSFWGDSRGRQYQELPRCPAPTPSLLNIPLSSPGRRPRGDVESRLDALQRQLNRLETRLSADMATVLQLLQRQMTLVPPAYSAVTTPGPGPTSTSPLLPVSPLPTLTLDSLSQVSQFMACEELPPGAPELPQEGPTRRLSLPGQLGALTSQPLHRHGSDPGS
This assay was performed by the method described in Skepper et al., J. Med. Chem. 2020, 63, 7773-7816:
hERG expressing cell lines were produced in-house at Novartis using CHO-K1 T-Rex inducible plasmid system (Invitrogen) as described previously (Cao et al., Assay Drug Dev. Technol. 2010, 8, 766-780). Cell lines were maintained in Ham's F12 nutrient mixture containing 10% FBS, blasticidin ([…]; InvivoGen), hygromycin B ([…]; InvivoGen), Zeocin ([…], Invitrogen), and neomycin ([…], Invitrogen) using SelecT automated cell culture system (TAP Biosystems, Cambridge, U.K.). hERG and hCav1.2 channels expression was induced with tetracycline (0.25-1 μg/mL, Invitrogen) at least 24 h prior to the experiment.
hERG currents were recorded using the Qpatch automated patch clamp systems (Sophion Bioscience Inc., North Brunswick, NJ) in the whole (single) cell configuration. hERG expressing CHO-K1 cells were harvested with Detachin (Genlantis) and stored in the modified serum-free SFM-2 media (Life Technologies) at room temperature. The extracellular solution contained (in mM) NaCl (145), KCl (4), MgCl2 (1), CaCl2 (2), and HEPES (10), pH 7.4, with NaOH. The intracellular solution contained KCl (135), MgCl2 (1.75), CaCl2 (5.4), EGTA (10), K2-ATP (4), and HEPES (10), pH 7.2, with KOH. After whole cell configuration was achieved, the cell was held at −90 mV, and a 0.1 s pulse to −50 mV was delivered to measure the leaking current, which was subtracted from the tail current online. Then the cell was depolarized to +20 mV for 4 s (prepulse), followed by a 4 s test pulse to −50 mV to reveal the hERG tail current. To monitor changes in the current amplitude, this voltage protocol was repeatedly applied every 20 s. Test compounds were first diluted in DMSO for six dose-response experiments and then dissolved in the extracellular solution using Freedom EVO liquid handling robotic system (Tecan, Männedorf, Switzerland). The final DMSO concentration in samples was 0.3% v/v. Amitriptyline (Sigma) was tested as a positive control. Data were analyzed using in-house developed MatLab-based program (MathWorks, Natick, MA
Background: Block of hERG is tested as a sign of cardiac risk.

Sequence of P-glycoprotein (P-gp) (P08183 whole entry): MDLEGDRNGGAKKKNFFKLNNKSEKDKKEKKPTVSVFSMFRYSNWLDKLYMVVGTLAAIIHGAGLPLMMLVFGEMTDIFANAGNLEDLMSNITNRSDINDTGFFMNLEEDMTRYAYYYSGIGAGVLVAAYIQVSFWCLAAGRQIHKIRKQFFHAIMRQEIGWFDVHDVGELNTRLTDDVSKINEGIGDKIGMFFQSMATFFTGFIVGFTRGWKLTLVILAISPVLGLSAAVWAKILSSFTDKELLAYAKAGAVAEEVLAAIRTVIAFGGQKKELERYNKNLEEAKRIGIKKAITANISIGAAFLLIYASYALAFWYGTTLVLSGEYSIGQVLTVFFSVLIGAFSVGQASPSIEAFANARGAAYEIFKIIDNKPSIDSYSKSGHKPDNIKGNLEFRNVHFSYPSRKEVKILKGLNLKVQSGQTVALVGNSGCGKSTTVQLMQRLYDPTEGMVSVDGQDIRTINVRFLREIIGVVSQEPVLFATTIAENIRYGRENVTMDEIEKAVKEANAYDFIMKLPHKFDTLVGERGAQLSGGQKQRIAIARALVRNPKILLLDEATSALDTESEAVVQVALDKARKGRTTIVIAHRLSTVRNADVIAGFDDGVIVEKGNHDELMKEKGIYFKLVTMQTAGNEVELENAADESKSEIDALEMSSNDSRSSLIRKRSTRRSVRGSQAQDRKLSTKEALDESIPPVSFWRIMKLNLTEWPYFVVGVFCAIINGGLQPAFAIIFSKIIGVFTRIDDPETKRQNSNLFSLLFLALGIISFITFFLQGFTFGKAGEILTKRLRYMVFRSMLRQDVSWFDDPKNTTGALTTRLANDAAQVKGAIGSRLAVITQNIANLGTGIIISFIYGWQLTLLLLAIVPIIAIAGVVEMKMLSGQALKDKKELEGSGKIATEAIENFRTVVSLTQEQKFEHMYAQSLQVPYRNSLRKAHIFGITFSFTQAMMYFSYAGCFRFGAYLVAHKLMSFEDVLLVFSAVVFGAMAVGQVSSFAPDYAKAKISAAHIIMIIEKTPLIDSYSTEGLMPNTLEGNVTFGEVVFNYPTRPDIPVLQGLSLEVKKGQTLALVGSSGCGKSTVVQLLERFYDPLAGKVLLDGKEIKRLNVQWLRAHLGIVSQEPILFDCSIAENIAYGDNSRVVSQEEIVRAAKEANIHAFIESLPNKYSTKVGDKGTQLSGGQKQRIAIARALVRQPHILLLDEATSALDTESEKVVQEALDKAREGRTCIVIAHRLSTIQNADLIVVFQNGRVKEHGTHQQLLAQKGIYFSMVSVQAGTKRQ
Sequence of NR2B (Q00960 27-1482, other chains not shown): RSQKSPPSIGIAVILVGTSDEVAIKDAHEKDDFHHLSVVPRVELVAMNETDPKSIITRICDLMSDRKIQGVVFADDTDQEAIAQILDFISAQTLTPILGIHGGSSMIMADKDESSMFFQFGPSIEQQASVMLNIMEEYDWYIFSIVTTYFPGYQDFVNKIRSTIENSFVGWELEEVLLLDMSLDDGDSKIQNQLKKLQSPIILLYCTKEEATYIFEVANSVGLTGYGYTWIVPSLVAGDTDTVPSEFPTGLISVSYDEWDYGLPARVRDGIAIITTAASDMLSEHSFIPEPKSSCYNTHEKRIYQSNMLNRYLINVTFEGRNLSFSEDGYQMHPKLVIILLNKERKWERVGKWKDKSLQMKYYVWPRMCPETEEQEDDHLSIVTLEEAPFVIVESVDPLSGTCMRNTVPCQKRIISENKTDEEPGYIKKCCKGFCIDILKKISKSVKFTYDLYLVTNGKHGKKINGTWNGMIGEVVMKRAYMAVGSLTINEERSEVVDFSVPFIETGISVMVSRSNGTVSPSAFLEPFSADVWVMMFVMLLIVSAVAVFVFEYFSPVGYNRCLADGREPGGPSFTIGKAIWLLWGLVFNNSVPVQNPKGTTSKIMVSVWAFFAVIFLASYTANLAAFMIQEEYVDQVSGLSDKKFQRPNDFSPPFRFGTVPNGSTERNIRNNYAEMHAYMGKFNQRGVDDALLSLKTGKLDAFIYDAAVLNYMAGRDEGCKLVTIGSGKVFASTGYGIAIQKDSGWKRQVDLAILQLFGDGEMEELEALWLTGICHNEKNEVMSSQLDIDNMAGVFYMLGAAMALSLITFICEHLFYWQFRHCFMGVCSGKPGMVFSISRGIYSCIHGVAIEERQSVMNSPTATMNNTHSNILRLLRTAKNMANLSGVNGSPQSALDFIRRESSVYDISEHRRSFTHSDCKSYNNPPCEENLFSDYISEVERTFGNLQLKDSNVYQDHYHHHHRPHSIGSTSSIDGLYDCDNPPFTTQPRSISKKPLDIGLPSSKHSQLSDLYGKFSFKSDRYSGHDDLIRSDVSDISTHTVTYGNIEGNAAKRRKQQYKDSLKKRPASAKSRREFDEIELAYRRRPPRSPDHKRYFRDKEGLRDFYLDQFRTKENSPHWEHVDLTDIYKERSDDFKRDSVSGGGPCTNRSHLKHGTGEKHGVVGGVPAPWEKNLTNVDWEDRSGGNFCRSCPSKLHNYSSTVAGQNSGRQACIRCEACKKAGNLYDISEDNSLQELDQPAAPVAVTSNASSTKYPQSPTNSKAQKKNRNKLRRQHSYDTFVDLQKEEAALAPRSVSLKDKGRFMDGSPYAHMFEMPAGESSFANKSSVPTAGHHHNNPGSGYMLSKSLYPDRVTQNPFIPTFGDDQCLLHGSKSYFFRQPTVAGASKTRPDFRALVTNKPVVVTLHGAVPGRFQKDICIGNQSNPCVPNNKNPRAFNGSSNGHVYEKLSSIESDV

`O=c1[nH]c2c(F)cc([C@H](O)CN3C[C@H]4C[C@H](Oc5ccccc5)C[C@@]4(O)C3)cc2s1` (single isomer, unassigned) [Example 42B]: the values for the pIC50 on NR2B and against hERG were 10.40 and 6.10, respectively. In addition, on P-glycoprotein (P-gp), the efflux ratio at 120 min, 10 μM worked out at 0.9.

As for `O=c1ccc2cc([C@@H](O)CN3C[C@H]4C[C@H](Oc5ccccc5)C[C@@]4(O)C3)ccc2[nH]1` (single isomer, unassigned) [Example 8A], the negative-log IC50 (pIC50) on NR2B is 9.10; at hERG, 5.55. At P-glycoprotein (P-gp), the efflux ratio at 120 min, 10 μM stood at 3.68.

As for `O=C1Nc2c(F)cc([C@H](O)CN3C[C@H]4C[C@H](Oc5ccccc5)C[C@@]4(O)C3)cc2CS1` (single isomer, unassigned) [Example 16B], the negative-log IC50 (pIC50) at NR2B is 10.10; against hERG it was 6.70. In addition, at P-glycoprotein (P-gp), the efflux ratio at 120 min, 10 μM was found to be 0.75.

As for `O=C1CCc2cc([C@@H](O)CN3C[C@H]4C[C@H](Oc5ccccc5)C[C@@]4(O)C3)ccc2N1` [Example 1A, 6-((R)-1-hydroxy-2-((3aS,5S,6aR)-3a-hydroxy-5-phenoxyhexahydrocyclopenta[c]pyrrol-2(1H)-yl)ethyl)-3,4-dihydroquinolin-2(1H)-one], the results for the negative-log IC50 (pIC50) at NR2B and against hERG were 9.22 and 4.97, respectively. For the same compound, at P-glycoprotein (P-gp), the efflux ratio at 120 min, 10 μM turned out to be 3.02.

Turning to `O=C1CCc2cc([C@@H](O)CN3C[C@H]4C[C@H](Oc5ccccc5)C[C@@]4(O)C3)cc(F)c2N1` (single isomer, unassigned) [Example 31A], the pIC50 at NR2B was 8.00; at hERG it was 5.14. For the same compound, on P-glycoprotein (P-gp), the efflux ratio at 120 min, 10 μM is 1.63.

As for `O=C1Nc2c(F)cc([C@@H](O)CN3C[C@H]4C[C@H](Oc5ccccc5)C[C@@]4(O)C3)cc2CS1` (single isomer, unassigned) [Example 16A], the pIC50 is 10.29 on NR2B and 6.40 on hERG. Also, the efflux ratio at 120 min, 10 μM on P-glycoprotein (P-gp) was determined as 0.66.

As to `O[C@@H](CN1C[C@H]2C[C@H](Oc3ccc(F)cc3F)C[C@@]2(O)C1)c1ccc2[nH]ncc2c1` [Example 21], the pIC50 on NR2B was 7.96; against hERG, 5.44. In addition, the “MDCK-MDR1 ER” value on P-glycoprotein (P-gp) (efflux ratio, 10 μM, 120 min) came to 1.94.
